Like-named read-outs stand apart in the source and are kept apart here. Residues, ends and D or L forms follow the SMILES beside them. *: point of attachment. Cbz = O=C(OCc1ccccc1)*
Assays:
[1] = test system: VSV-SARS-CoV-2; experiment: organism not typed; format: cell-based
[2] = test system: VSV; experiment: microbe, parasite or virus in culture; format: cell-based
[3] = test system: VSV; settings: ref [12]; cited from earlier work
[4] = test system: MA104 cells; settings: treated 25 h, WST-8
[5] = test system: VSV-SARS-CoV-2; format: cell-based; settings: MA104, MOI of 3, 24 hpi
[6] = test system: SARS-CoV; settings: ref [6]; cited from earlier work
[7] = test system: SARS-CoV-2-mNeonGreen; experiment: SARS-CoV-2-mNeonGreen infection of Vero E6 cells; format: cell-based
[8] = test system: VSV-SARS-CoV-2; experiment: organism not typed; format: cell-based; remark: listed apart in the source
[9] = test system: SARS-CoV-2; settings: ref [4], [7]; cited from earlier work
[10] = in vitro; settings: African green monkey
[11] = Vesicular stomatitis virus, MA104, read-out: EC50 against VSV
[12] = MA104, read-out: EC50 against VSV-SARS-CoV-2, MA104 cells, pre-treated 1 h, 24 h infection, MOI = 1, GFP signal
[13] = MA104, read-out: EC50 against VSV-SARS-CoV-2 (Fig. S1), MA104 cells, treated 1 h prior, MOI of 0.5, 24 hpi

C[C@H]1CCC/C=C/[C@@H]2C[C@H](O)C[C@H]2[C@H](O)/C=C/C(=O)O1 [Brefeldin A, brefeldin A]
EC50 ([1]; read-out: EC50 against VSV-SARS-CoV-2, MA104 cells, pre-treated 1 h, 24 h infection, MOI = 1, GFP signal): < 2 µM

O=C(O)/C=C/c1ccc(O)c(O)c1 [Caffeic Acid, caffeic acid]
EC50 [2, 11]: 6.7 µM
EC50 [1, 12]: 4.66 µM

C/C=C/[C@H]1O[C@@](O)([C@@H](C)[C@H](O)[C@H](C)[C@H]2OC(=O)/C(OC)=C/C(C)=C/[C@@H](C)[C@@H](O)[C@@H](CC)[C@@H](O)[C@H](C)C/C(C)=C/C=C/[C@@H]2OC)C[C@@H](O[C@H]2C[C@@H](O)[C@H](OC(N)=O)[C@@H](C)O2)[C@@H]1C [Concanamycin A, concanamycin A]
EC50 [2, 11]: 5.55 µM
EC50 [1, 12]: < 0.01 µM

CCOC(=O)[C@H]1O[C@@H]1C(=O)N[C@@H](CC(C)C)C(=O)NCCC(C)C [E-64d]
sensitivity of VSV to treatment (in words) [3]: not be sensitive to E-64d treatment
CC50 [4]: > 300 µM

CCCCCCCCc1ccc(CCC(N)(CO)CO)cc1 [FTY720]
EC50 [2, 11]: 16.5 µM
EC50 [1, 12]: 5.17 µM

CC(C)Cn1c(=O)n(C)c(=O)c2[nH]cnc21 [IBMX, 3-isobutyl-1-methylxanthine]
EC50 [2, 11]: < 2 µM
EC50 [1, 12]: < 2 µM

Clc1ccc(N/N=C(\c2ccccc2)c2ccccn2)nc1 [JIB-04]
percentage of inhibition ([5]; JIB-04 0.3 µM, NTZ 0 µM): 21%
percentage of inhibition ([5]; JIB-04 1 µM, NTZ 0 µM): 50%
percentage of inhibition ([5]; JIB-04 3 µM, NTZ 0 µM): 73%
percentage of inhibition ([5]; JIB-04 10 µM, NTZ 0 µM): 90%

CC(=O)N1CCN(c2ccc(OCC3COC(Cn4ccnc4)(c4ccc(Cl)cc4Cl)O3)cc2)CC1 (stereo not shown) [Ketoconazole, ketoconazole]
EC50 [2, 11]: > 100 µM
EC50 [1, 12]: 30.1 µM

CC(C)C[C@@H](C=O)NC(=O)[C@H](CC(C)C)NC(=O)[C@H](CC(C)C)NC(=O)OCc1ccccc1 [MG132] (Cbz-Leu-Leu-Leu-aldehyde)
SARS-CoV replication (in words) [6]: impair SARS-CoV replication
EC50 [1, 12]: 0.64 µM
selectivity in antiviral activities, VSV EC50 compared to VSV-SARS-CoV-2 EC50 ([1]; MA104 cells): 100 fold

CC(=O)Oc1ccccc1C(=O)Nc1ncc([N+](=O)[O-])s1 [Nitazoxanide, nitazoxanide]
EC50 [2, 11]: 16.3 µM
percentage of inhibition ([5]; JIB-04 0 µM, NTZ 1 µM): 16%
percentage of inhibition ([5]; JIB-04 0 µM, NTZ 3 µM): 24%
percentage of inhibition ([5]; JIB-04 0 µM, NTZ 10 µM): 42%
percentage of inhibition ([5]; JIB-04 0 µM, NTZ 30 µM): 92%
EC50 [1, 13]: 5.82 µM
EC50 [1, 12]: 10.5 µM
SI (selectivity index) ([1]; VSV-SARS-CoV-2, MA104 cells): 237
SI (selectivity index) ([7]; SARS-CoV-2-mNeonGreen, Vero E6 cells): 167
EC50 ([7]; Severe acute respiratory syndrome coronavirus 2, Vero C1008, read-out: EC50 against SARS-CoV-2-mNeonGreen): 4.9 µM

COc1ccc2cc1Oc1ccc(cc1)C[C@H]1c3cc(c(OC)cc3CCN1C)Oc1c(OC)c(OC)cc3c1[C@H](C2)N(C)CC3 [Tetrandrine, tetrandrine]
EC50 [2, 11]: 23.2 µM
EC50 [1, 12]: 1.23 µM

C/C=C(/C)C(=O)O[C@H]1C(C)=C2[C@H]([C@@H]1OC(=O)CCCCCCC)[C@@](C)(OC(C)=O)C[C@H](OC(=O)CCC)[C@@]1(O)[C@H]2OC(=O)[C@@]1(C)O [Thapsigargin, thapsigargin]
EC50 [2, 11]: 4.08 µM
EC50 [1, 12]: 0.22 µM

CC(C)[C@H](NC(=O)OCc1ccccc1)C(=O)N[C@H](C=O)Cc1ccccc1 [calpain inhibitor III] (Cbz-Val-Phe-aldehyde)
EC50 ([2]; read-out: EC50 against VSV): 10.7 µM
selectivity in antiviral activities, VSV EC50 compared to VSV-SARS-CoV-2 EC50 ([1]; MA104 cells): more than 30 fold
EC50 ([1]; MA104 cells, pre-treated 1 h, 24 h infection, MOI = 1, GFP signal, read-out: EC50 against VSV-SARS-CoV-2): 0.231 µM
CC50 [4]: > 300 µM
EC50 ([8]; Vero E6 cells, pre-treated 1 h, 24 h infection, read-out: EC50 against VSV-SARS-CoV-2 in Vero E6 cells): < 0.5 µM

CSCC[C@@H](C=O)NC(=O)[C@H](CC(C)C)NC(=O)[C@H](CC(C)C)NC(C)=O [calpain inhibitor II] (Ac-Leu-Leu-Met-aldehyde)
suppression of SARS-CoV-2 replication (in words) [9]: suppressed SARS-CoV-2 replication

CCCC[C@@H](C=O)NC(=O)[C@H](CC(C)C)NC(=O)OCc1ccccc1 [calpeptin]
EC50 [2, 11]: 7.43 µM
CC50 [10]: 300 µM
EC50 [1, 12]: 0.208 µM
selectivity in antiviral activities, VSV EC50 compared to VSV-SARS-CoV-2 EC50 ([1]; MA104 cells): more than 30 fold
EC50 ([8]; Vero C1008, read-out: EC50 against VSV-SARS-CoV-2 in Vero E6 cells, Vero E6 cells, pre-treated 1 h, 24 h infection): < 0.5 µM
suppression of SARS-CoV-2 replication (in words) [9]: suppressed SARS-CoV-2 replication

O=C(/C=C/c1ccc(O)c(O)c1)O[C@H](Cc1ccc(O)c(O)c1)C(=O)O [rosmarinic acid]
CC50 [10]: > 300 µM
EC50 [1, 13]: > 100 µM
inhibition of VSV-SARS-CoV-2 infection (in words) ([1]; MA104 cells): did not inhibit VSV-SARS-CoV-2 infection

Reference: paper PMC10936414 (mBio, 2024)
